# Experimental data published in PMC7646182, “Design and biological evaluation of novel BF-30 analogs for the treatment of malignant melanoma” (Journal of Cancer, 2020).
# System: B16F10 melanoma
# Assay: Chronic study in B16F10-bearing mouse model
# Assay type: in vivo
# Settings: B16F10-bearing C57BL/6J mice, 4-week treatment; LBF-14 0.3 and 0.9 mg/kg, cisplatinum 0.1 mg/kg, n=10
# Description: The B16F10 cells (0.1 ml, 5×10^6 cells, cell viability >99%) were subcutaneously transplanted into the C57BL/6J mice. In the next 15 days, the length (L), width (W) and height (H) of tumours were measured with a caliper to calculate tumour volume using the formula: V = π/6×L×W×H. When the tumours grew to 150-350 mm^3, the melanoma model mice were randomly divided into five groups (n=10) and received saline, native BF-30 at 0.9 mg/kg, LBF-14 at […] doses of 0.3 and 0.9 mg/kg, and cisplatinum at the dose of 0.1 mg/kg, respectively. All the samples including the saline and different doses of LBF-14 were administered twice weekly by intra-tumour injection (50 μl) for 4 successive weeks. All melanoma model mice were weighted and sacrificed at the end of the experimental period (day 29). The anti-tumour efficacies of LBF-14 at both two doses were presented as inhibitory rates (%) which were calculated as [(A-B)/A]×100% (average tumour weight of (A) saline treated group and (B) LBF-14 treated groups, respectively). In addition, the tumours from the B16F10-bearing mice were separated and then performed H&E staining according to the standard operating procedures.
compound,measurement,value
N.N.[Cl][Pt][Cl] [cisplatinum],effect on body weight of model mice,significant decrease in body weight
